US20060229433A1, “Modified antiviral peptides with increased activity and cell membrane affinity” (priority 2003, published 2006)
Where “and” joins values, the source holds several entries; their conditions need not be identical. Identical values can stand only once. Square brackets hold non-standard residues; d marks the D form. Peptide text beside a SMILES is read from it. Ava = NCCCCC(=O)O

What was measured:
Type in all cases: cell-based
[1] = system: HIV-1 NL 4-3; experiment: HIV-1 infection of C8166 cells (syncytia formation, p24 ELISA) with HIV-1 NL 4-3; set-up: key to syncitia formed, Day 4 / syncitia formed, Day 5 / syncitia formed, Day 6 / syncitia formed, Day 7: ++, +, (+), (+)− and − represent decreasing numbers of syncitia formed; ++, +, (+), (+)− and − represent decreasing numbers of syncitia formed; ++, +, (+), (+)− and − represent decreasing numbers of syncitia formed; ++, +, (+), (+)− and − represent decreasing numbers of syncitia formed; ++, +, (+), (+)− and − represent decreasing numbers of syncitia formed
Procedure, shortened: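 Infection was read out as syncytia and as cell-free p24 in supernatants (ELISA) from C8166 cells that received HIV-1 (1000 TCID50/ml, 1 h, 37 °C) after a 1 h peptide pretreatment. Peptide stayed on before, during and after adsorption. Toxicity was checked by daily trypan-blue counts.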

[2] = system: HIV-1 NDK; experiment: HIV-1 infection of C8166 cells (syncytia formation, p24 ELISA) with HIV-1 NDK; set-up: key to syncitia formed, Day 4 / syncitia formed, Day 5 / syncitia formed, Day 6 / syncitia formed, Day 7: ++, +, (+), (+)− and − represent decreasing numbers of syncitia formed; ++, +, (+), (+)− and − represent decreasing numbers of syncitia formed; ++, +, (+), (+)− and − represent decreasing numbers of syncitia formed; ++, +, (+), (+)− and − represent decreasing numbers of syncitia formed; ++, +, (+), (+)− and − represent decreasing numbers of syncitia formed; conditions: for P 24: P 24 after Day 7
Protocol: (§1) HIV-1 NL 4-3 isolate (Adachi et al., 1986; Barré-Sinoussi et al., 1983) and highly cytopathic Zairian HIV-1 NDK isolate (Ellrodt et al., 1984) was propagated in permissive CEM cells (Nara et al., 1987). Uninfected CEM and C8166 (Salahuddin et al., 1983) were maintained in RPMI 1640 (R10) with ultraglutamine (cambrex, Vervier, Belgium), penicillin (100 U/ml), streptomycin (100 μg/ml), and 10% heat-inactivated fetal calf serum (Cambrex).
(§2) Samples of 3×10^5/100 μL C8166 cells were preincubated in 96-well microtiter plates in culture medium containing various concentrations of peptide. After a 1 h treatment at 37° C., 100 μl of diluted viral solution of HIV-1 was added. The cells were exposed to the virus for 1 h at 37° C. at a multiplicity of infection of 1000 TCID50 per ml. The cells were washed three times and cultured at 3×10^5/ml of R10 with the treatment in 24-well plates incubated at 37° C. C8166 culture medium was replaced at Day-4 post-infection. The treatment was permanent before virus adsorption, during virus adsorption and after infection. Assays on C8166 cells have been performed at least twice and in duplicate. Toxicity was evaluated by daily cell count and trypan-blue exclusion assay. Infection of C8166 T-cells with HIV-1 was assessed by virus-induced cytopathic effects (syncytia formation) and by quantification of cell free p24 viral protein in the culture supernatants. Measurements of HIV-1 p24^gag concentration in the culture supernatants were achieved by ELISA (ALLIANCE® HIV-1 p24 kit, Perkin Elmer, life sciences, USA).

[3] = system: HIV-1 NL 4-3; experiment: HIV-1 infection of C8166 cells (syncytia formation, p24 ELISA) with HIV-1 NL 4-3; set-up: key: ++, +, (+), (+)− and − represent decreasing numbers of syncitia formed; ++, +, (+), (+)− and − represent decreasing numbers of syncitia formed; ++, +, (+), (+)− and − represent decreasing numbers of syncitia formed; ++, +, (+), (+)− and − represent decreasing numbers of syncitia formed; ++, +, (+), (+)− and − represent decreasing numbers of syncitia formed; conditions: Table 6
Protocol: as §1, §2

[4] = C8166 cells, HIV-1 subtype B NL 4-3, Table 9, two lines = tested twice, 8 days apart

In the case of `NCC(=O)N1CCC[C@H]1C(=O)NCC(=O)NCCCCC(=O)O` [GPG valeric acid, GPG-NHCH2CH2CH2CH2COOH] (H-GPG[Ava]-OH; N-terminus assumed), the “Day 7 syncitia formed” value ([1]; 0.005 μM, Table 6) is reported as “++/T”, the “syncitia formed, Day 4” value ([1]; 0.01 μM, C8166 cells) is reported as “−” and the “syncitia formed, Day 5” value ([1]; 0.01 μM, C8166 cells) is reported as “(+)”. The “syncitia formed, Day 6” value ([1]; 0.01 μM, C8166 cells) was “+”, the “syncitia formed, Day 7” value ([1]; 0.01 μM, Day 7, C8166 cells) was “++” and the “syncitia formed, Day 4” value ([1]; 0.05 μM, C8166 cells) was “−”. The “syncitia formed, Day 5” value ([1]; 0.05 μM, C8166 cells) was “−”, the “syncitia formed, Day 6” value ([1]; 0.05 μM, C8166 cells) was “(+)” and the “syncitia formed, Day 7” value ([1]; 0.05 μM, Day 7, C8166 cells) was “+”. For the same compound, the “P 24” value ([1]; 0.05 μM, P 24 after Day 7, C8166 cells) was 3810 pg/mL and 2300 pg/mL, the “syncitia formed, Day 4” value ([1]; 0.1 μM, C8166 cells) was “−” and the “syncitia formed, Day 5” value ([1]; 0.1 μM, C8166 cells) was “−”. The “syncitia formed, Day 6” value ([1]; 0.1 μM, C8166 cells) was “(+)”, the “syncitia formed, Day 7” value ([1]; 0.1 μM, Day 7, C8166 cells) was “+” and the “P 24” value ([1]; 0.1 μM, P 24 after Day 7, C8166 cells) was 108 pg/mL and 130 pg/mL. The “syncitia formed, Day 4” value ([1]; 0.5 μM, C8166 cells) was “−”, the “syncitia formed, Day 5” value ([1]; 0.5 μM, C8166 cells) was “−” and the “syncitia formed, Day 6” value ([1]; 0.5 μM, C8166 cells) was “−”. The “syncitia formed, Day 7” value ([1]; 0.5 μM, Day 7, C8166 cells) was “(+)”, the “syncitia formed, Day 4” value ([1]; 1 μM, C8166 cells) was “−” and the “syncitia formed, Day 5” value ([1]; 1 μM, C8166 cells) was “−”. The “syncitia formed, Day 6” value ([1]; 1 μM, C8166 cells) was “−”, the “syncitia formed, Day 7” value ([1]; 1 μM, Day 7, C8166 cells) was “−” and the “P 24” value ([1]; 1 μM, P 24 after Day 7, C8166 cells) was 86 pg/mL and 74 pg/mL. The “syncitia formed, Day 4” value ([1]; 5 μM, C8166 cells) was “−”, the “syncitia formed, Day 5” value ([1]; 5 μM, C8166 cells) was “−” and the “syncitia formed, Day 6” value ([1]; 5 μM, C8166 cells) was “−”. The “syncitia formed, Day 7” value ([1]; 5 μM, Day 7, C8166 cells) was “−”, the “P 24” value ([1]; 5 μM, P 24 after Day 7, C8166 cells) was 60 pg/mL and 34 pg/mL and the IC50 [1, 4] was 10 nM. For the same compound, the IC100 [1, 4] was 0.5 µM and 1 µM, the “P 24” value ([1]; Day 7, 0.005 μM, Table 6) was 23810 pg/mL and the “P 24” value ([1]; Day 7, 0.01 μM, Table 6) was 11810 pg/mL and 13740 pg/mL. The “P 24” value ([1]; Day 7, 0.5 μM, Table 6) was 3.5 pg/mL and 5.6 pg/mL, the “P 24” value ([1]; Day 7, 1 μM, Table 6) was 5.636 pg/mL and 4.8 pg/mL and the “P 24” value ([1]; Day 7, 5 μM, Table 6) was 5.6 pg/mL and 3.2 pg/mL. The “syncitia formed, Day 4” value ([2]; 0.005 μM) was “(+)”, the “syncitia formed, Day 5” value ([2]; 0.005 μM) was “+” and the “syncitia formed, Day 6” value ([2]; 0.005 μM) was “++”. For the same compound, the “syncitia formed, Day 7” value ([2]; 0.005 μM) was “++”, the “P 24” value ([2]; 0.005 μM) was 23810 pg/mL and the “syncitia formed, Day 4” value ([2]; 0.01 μM) was “(+)”. The “syncitia formed, Day 5” value ([2]; 0.01 μM) was “+”, the “syncitia formed, Day 6” value ([2]; 0.01 μM) was “++” and the “syncitia formed, Day 7” value ([2]; 0.01 μM) was “++”. The “P 24” value ([2]; 0.01 μM) was 23810 pg/mL, the “syncitia formed, Day 4” value ([2]; 0.05 μM) was “−” and the “syncitia formed, Day 5” value ([2]; 0.05 μM) was “(+)”. For the same compound, the “syncitia formed, Day 6” value ([2]; 0.05 μM) was “++”, the “syncitia formed, Day 7” value ([2]; 0.05 μM) was “++” and the “P 24” value ([2]; 0.05 μM) was 11810 pg/mL and 15879 pg/mL. The “syncitia formed, Day 4” value ([2]; 0.1 μM) was “−”, the “syncitia formed, Day 5” value ([2]; 0.1 μM) was “−” and the “syncitia formed, Day 6” value ([2]; 0.1 μM) was “+”. The “syncitia formed, Day 7” value ([2]; 0.1 μM) was “++”, the “P 24” value ([2]; 0.1 μM) was 3507 pg/mL and 3670 pg/mL and the “syncitia formed, Day 4” value ([2]; 0.5 μM) was “−”. For the same compound, the “syncitia formed, Day 5” value ([2]; 0.5 μM) was “−”, the “syncitia formed, Day 6” value ([2]; 0.5 μM) was “+” and the “syncitia formed, Day 7” value ([2]; 0.5 μM) was “++”. For the same compound, the “P 24” value ([2]; 0.5 μM) was 2578 pg/mL and 3140 pg/mL, the “syncitia formed, Day 4” value ([2]; 1 μM) was “−” and the “syncitia formed, Day 5” value ([2]; 1 μM) was “−”. For the same compound, the “syncitia formed, Day 6” value ([2]; 1 μM) was “−”, the “syncitia formed, Day 7” value ([2]; 1 μM) was “+” and the “P 24” value ([2]; 1 μM) was 2810 pg/mL and 1840 pg/mL. For the same compound, the “syncitia formed, Day 4” value ([2]; 5 μM) was “−”, the “syncitia formed, Day 5” value ([2]; 5 μM) was “−” and the “syncitia formed, Day 6” value ([2]; 5 μM) was “−”. For the same compound, the “syncitia formed, Day 7” value ([2]; 5 μM) was “(+)”, the “P 24” value ([2]; 5 μM) was 284 pg/mL and 217 pg/mL and the IC50 ([2]; HIV 1 NDK, Table 10) was 20 nM. The IC100 ([2]; HIV 1 NDK, Table 10) was 5 µM, the “Day 4 syncitia formed” value ([3]; 0.005 μM) was “−” and the “Day 5 syncitia formed” value ([3]; 0.005 μM) was “+”. The “Day 6 syncitia formed” value ([3]; 0.005 μM) was “++”, the “Day 4 syncitia formed” value ([3]; 0.01 μM) was “−” and the “Day 5 syncitia formed” value ([3]; 0.01 μM) was “+”. For the same compound, the “Day 6 syncitia formed” value ([3]; 0.01 μM) was “+”, the “Day 7 syncitia formed” value ([3]; 0.01 μM) was “++” and the “Day 4 syncitia formed” value ([3]; 0.05 μM) was “−”. For the same compound, the “Day 5 syncitia formed” value ([3]; 0.05 μM) was “−”, the “Day 6 syncitia formed” value ([3]; 0.05 μM) was “(+)” and the “Day 7 syncitia formed” value ([3]; 0.05 μM) was “+”. For the same compound, the “Day 4 syncitia formed” value ([3]; 0.1 μM) was “−”, the “Day 5 syncitia formed” value ([3]; 0.1 μM) was “−” and the “Day 6 syncitia formed” value ([3]; 0.1 μM) was “(+)”. For the same compound, the “Day 7 syncitia formed” value ([3]; 0.1 μM) was “+”, the “Day 4 syncitia formed” value ([3]; 0.5 μM) was “−” and the “Day 5 syncitia formed” value ([3]; 0.5 μM) was “−”. For the same compound, the “Day 6 syncitia formed” value ([3]; 0.5 μM) was “−”, the “Day 7 syncitia formed” value ([3]; 0.5 μM) was “−” and the “Day 4 syncitia formed” value ([3]; 1 μM) was “−”. For the same compound, the “Day 5 syncitia formed” value ([3]; 1 μM) was “−”, the “Day 6 syncitia formed” value ([3]; 1 μM) was “−” and the “Day 7 syncitia formed” value ([3]; 1 μM) was “−”. The “Day 4 syncitia formed” value ([3]; 5 μM) was “−”, the “Day 5 syncitia formed” value ([3]; 5 μM) was “−” and the “Day 6 syncitia formed” value ([3]; 5 μM) was “−”. For the same compound, the “Day 7 syncitia formed” value ([3]; 5 μM) was “−”.
